Experimental data taken from publication PMC7306898, “Concentration-Dependent Activity of Hydromethylthionine on Clinical Decline and Brain Atrophy in a Randomized Controlled Trial in Behavioral Variant Frontotemporal Dementia” (Journal of Alzheimer's Disease, 2020).

What was measured:
red blood cells = settings: cited from earlier work
bvFTD patients [1] = experiment: Safety: treatment emergent adverse events, Safety Population; settings: for deaths: none judged related to treatment
Excerpt: Patients were monitored throughout the study for adverse events, including use of clinical laboratory tests (including measurement of methaemoglobin by pulse CO-oximetry), physical and neurological examinations, and 12-lead electrocardiograms (ECG) at all clinic visits (screening, baseline, and weeks 2, 16, 32, 52, and 56). The Unified Parkinson’s Disease Rating Scale Part III (UPDRS) [58] was included as a motor safety outcome measure requested by a regulatory agency, as was the Columbia-Suicide Severity Rating Scale (C-SSRS) [59], which were assessed at all visits. Patients were also systematically monitored for potential serotonin syndrome using a rating scale derived from four published diagnostic criteria [60], because of a theoretical potential for serotonin syndrome [61]. By protocol, amyloid related imaging abnormalities (ARIA), serotonin toxicity, and suicidality were to be reported as serious adverse events for expedited reporting.

bvFTD patients [2] = experiment: Frontotemporal volume (FTV) change by MRI (Tensor-Based Morphometry); format: in vivo, human; settings: Patients receiving 8 mg/day, vs Cmax,ss ≤[…], 52 weeks
Excerpt: (§1) The two doses were provided in identical blister packages as visually identical oral tablets to be taken for up to 52 weeks. The primary outcome was the Addenbrookes Cognitive Examination – Revised (ACE-R). The Functional Activities Questionnaire (FAQ) and reduction in progression of whole brain atrophy were alternative co-primary outcomes. Other outcomes included: Modified Alzheimer’s Disease Cooperative Study – Clinical Global Impression of Change (Modified-CGIC) determined by a third independent rater; Frontotemporal Dementia Rating Scale (FRS); MMSE (from MMSE items incorporated into ACE-R); Addenbrookes Cognitive Examination – III (a revised version of ACE-R which excludes MMSE items subject to copyright restrictions); change in brain volume measured by MRI in frontal and temporal lobes (FTV) and lateral ventricles (LVV); and the effect of hydromethylthionine in patients with known genetic mutations associated with bvFTD. Blood was collected prospectively for the purpose of population PK analyses.
MRI scans were obtained at screening and weeks 16, 32, and 52. The acquisition protocol was standardized across sites and all data were centrally collected, quality-controlled, and analyzed by the imaging core laboratory (Bioclinica). MRI data included a 3D sagittal T1-weighted sequence (using parameters compatible with the ADNI protocol) which was used for all volumetric analyses. […]

bvFTD patients [3] = experiment: UPDRS Part III motor safety outcome, 52-week Phase III trial; format: in vivo, human
Experimental: The primary analyses were specified as a mixed model, repeated-measures analysis with an unstructured covariance matrix and no imputation for missing data. The model included visit (three levels corresponding to assessments at weeks 16, 32, and 52), treatment group (two levels, 4 mg or 100 mg twice a day), a visit by treatment group interaction term, use of AD-labelled medications (two levels, using or not using), geographic region (three levels: North America, Asia/Australia, Europe), and baseline value of the variable analyzed. The individual comparisons were implemented through contrasts. The Bonferroni-Holm correction was used to take account of multiplicity arising from alternative co-primary outcomes (FAQ and whole brain atrophy). We used the same method for all secondary analyses in predefined gated sequences such that no further adjustment of alpha (0.05) was needed.
Blood samples for assessment of parent MT, N-desmethyl MT, and total MT (sum of parent MT and a labile LMT conjugate), were collected from each patient on the first treatment visit (two samples: pre-dose and approximately 3.5 h after the dose) and at each subsequent on-treatment visit. […] MT levels in plasma were measured using liquid chromatography-tandem mass spectrometry assay. […] Model development and estimation of steady state maximum plasma concentration (Cmax,ss) were determined independently by the Institute of Clinical Pharmacodynamics (ICPD, NY, USA). Cmax,ss estimates using a model validated in Phase I studies were based on in-clinic plasma concentration data obtained on Day 1 when the dose-sampling interval was accurately recorded. […] Change in ACE-R, ACE-III, FAQ, MMSE, Modified-CGIC, FRS, whole brain volume (WBV), lateral ventricular volume (LVV), and frontotemporal volume (FTV), as well as UPDRS Part III, were expressed as a function of Cmax,ss estimates grouped into four groups described in the results section. […]

bvFTD patients [4] = experiment: Frontotemporal Dementia Rating Scale (FRS), 52-week Phase III trial; format: in vivo, human
Excerpt: as §1
The primary analyses were specified as a mixed model, repeated-measures analysis with an unstructured covariance matrix and no imputation for missing data. […]

[5] = 8 mg/day (n = 110), Safety Population
[6] = 200 mg/day (n = 108), Safety Population
[7] = 8 mg/day (n = 110), modeled change from baseline at 52 weeks
[8] = 200 mg/day (n = 104) vs 8 mg/day, 52 weeks

SMILES: CN(C)c1ccc2c(c1)Sc1cc(N(C)C)ccc1N2 [hydromethylthionine, leuco-methylthioninium bis(hydromethanesulphonate)]
- efficiency of uptake into red blood cells relative to MTC (red blood cells): 20 fold
- patients with TEAEs judged by the Investigator to be related to study drug (bvFTD patients [1]; 8 mg/day): 30%
- patients with a TEAE resulting in a dose reduction, interruption, or withdrawal of study drug (bvFTD patients [1]; 8 mg/day): 15 [14%]
- patients with at least one severe TEAE (bvFTD patients [1]; 8 mg/day): 13 (12%)
- subjects with myoclonus reported as an AE (bvFTD patients [1]; 8 mg/day): 2
- withdrawal rate over 12 months (bvFTD patients [1]; 8 mg/day): 15%
- Number (%) of Patients Reporting at Least One Adverse Event (TEAE) (bvFTD patients [1]; [5]): 88 (80%)
- Number (%) of patients with TEAE: Agitation (bvFTD patients [1]; [5]): 9 (8.2%)
- Number (%) of patients with TEAE: Blood folate decreased (bvFTD patients [1]; [5]): 6 (5.5%)
- Number (%) of patients with TEAE: Cough (bvFTD patients [1]; [5]): 7 (6.4%)
- Number (%) of patients with TEAE: Diarrhea (bvFTD patients [1]; [5]): 9 (8.2%)
- Number (%) of patients with TEAE: Dysuria (bvFTD patients [1]; [5]): 0
- Number (%) of patients with TEAE: Fall (bvFTD patients [1]; [5]): 10 (9.1%)
- Number (%) of patients with TEAE: Folate deficiency (bvFTD patients [1]; [5]): 2 (1.8%)
- Number (%) of patients with TEAE: Gastrointestinal disorders (bvFTD patients [1]; [5]): 28 (25.5%)
- Number (%) of patients with TEAE: Headache (bvFTD patients [1]; [5]): 8 (7.3%)
- Number (%) of patients with TEAE: Infections and infestations (bvFTD patients [1]; [5]): 38 (34.5%)
- Number (%) of patients with TEAE: Injury, poisoning and procedural complications (bvFTD patients [1]; [5]): 18 (16.4%)
- Number (%) of patients with TEAE: Insomnia (bvFTD patients [1]; [5]): 3 (2.7%)
- Number (%) of patients with TEAE: Investigations (bvFTD patients [1]; [5]): 17 (15.5%)
- Number (%) of patients with TEAE: Metabolism and nutrition disorders (bvFTD patients [1]; [5]): 12 (10.9%)
- Number (%) of patients with TEAE: Nasopharyngitis (bvFTD patients [1]; [5]): 8 (7.3%)
- Number (%) of patients with TEAE: Pollakiuria (bvFTD patients [1]; [5]): 3 (2.7%)
- Number (%) of patients with TEAE: Psychiatric disorders (bvFTD patients [1]; [5]): 29 (26.4%)
- Number (%) of patients with TEAE: Renal and urinary disorders (bvFTD patients [1]; [5]): 25 (22.7%)
- Number (%) of patients with TEAE: Respiratory, thoracic and mediastinal disorders (bvFTD patients [1]; [5]): 12 (10.9%)
- Number (%) of patients with TEAE: Urinary incontinence (bvFTD patients [1]; [5]): 13 (11.8%)
- Number (%) of patients with TEAE: Urinary tract infection (bvFTD patients [1]; [5]): 13 (11.8%)
- Number (%) of patients with TEAE: Vomiting (bvFTD patients [1]; [5]): 5 (4.5%)
- Number (%) of patients with TEAE: White blood cells urine positive (bvFTD patients [1]; [5]): 1 (0.9%)
- Number (%) of Patients Reporting at Least One Adverse Event (TEAE) (bvFTD patients [1]; 8 mg/day (n = 110), Safety Population, listed as Hydromethylthionine): 88 (80.0%)
- frequency of renal and urinary disorders (bvFTD patients [1]; 8 mg/day, above-threshold plasma levels): 26%
- frequency of renal and urinary disorders (bvFTD patients [1]; 8 mg/day, below-threshold plasma levels): 18%
- deaths (bvFTD patients [1]; 8 mg/day): 1
- patients with TEAEs judged by the Investigator to be related to study drug (bvFTD patients [1]; 200 mg/day): 56%
- patients with a TEAE resulting in a dose reduction, interruption, or withdrawal of study drug (bvFTD patients [1]; 200 mg/day): 35 [32%]
- patients with at least one severe TEAE (bvFTD patients [1]; 200 mg/day): 17 (16%)
- subjects with myoclonus reported as an AE (bvFTD patients [1]; 200 mg/day): 1
- withdrawal rate over 12 months (bvFTD patients [1]; 200 mg/day): 38%
- Number (%) of Patients Reporting at Least One Adverse Event (TEAE) (bvFTD patients [1]; [6]): 103 (95.4%)
- Number (%) of patients with TEAE: Agitation (bvFTD patients [1]; [6]): 9 (8.3%)
- Number (%) of patients with TEAE: Blood folate decreased (bvFTD patients [1]; [6]): 9 (8.3%)
- Number (%) of patients with TEAE: Cough (bvFTD patients [1]; [6]): 2 (1.9%)
- Number (%) of patients with TEAE: Diarrhea (bvFTD patients [1]; [6]): 24 (22.2%)
- Number (%) of patients with TEAE: Dysuria (bvFTD patients [1]; [6]): 6 (5.6%)
- Number (%) of patients with TEAE: Fall (bvFTD patients [1]; [6]): 13 (12.0%)
- Number (%) of patients with TEAE: Folate deficiency (bvFTD patients [1]; [6]): 6 (5.6%)
- Number (%) of patients with TEAE: Gastrointestinal disorders (bvFTD patients [1]; [6]): 42 (38.9%)
- Number (%) of patients with TEAE: Headache (bvFTD patients [1]; [6]): 5 (4.6%)
- Number (%) of patients with TEAE: Infections and infestations (bvFTD patients [1]; [6]): 34 (31.5%)
- Number (%) of patients with TEAE: Injury, poisoning and procedural complications (bvFTD patients [1]; [6]): 16 (14.8%)
- Number (%) of patients with TEAE: Insomnia (bvFTD patients [1]; [6]): 7 (6.5%)
- Number (%) of patients with TEAE: Investigations (bvFTD patients [1]; [6]): 34 (31.5%)
- Number (%) of patients with TEAE: Metabolism and nutrition disorders (bvFTD patients [1]; [6]): 14 (13.0%)
- Number (%) of patients with TEAE: Nasopharyngitis (bvFTD patients [1]; [6]): 7 (6.5%)
- Number (%) of patients with TEAE: Nervous system disorders (bvFTD patients [1]; [6]): 27 (25.0%)
- Number (%) of patients with TEAE: Pollakiuria (bvFTD patients [1]; [6]): 10 (9.3%)
- Number (%) of patients with TEAE: Psychiatric disorders (bvFTD patients [1]; [6]): 31 (28.7%)
- Number (%) of patients with TEAE: Renal and urinary disorders (bvFTD patients [1]; [6]): 28 (25.9%)
- Number (%) of patients with TEAE: Respiratory, thoracic and mediastinal disorders (bvFTD patients [1]; [6]): 8 (7.4%)
- Number (%) of patients with TEAE: Urinary incontinence (bvFTD patients [1]; [6]): 9 (8.3%)
- Number (%) of patients with TEAE: Urinary tract infection (bvFTD patients [1]; [6]): 14 (13.0%)
- Number (%) of patients with TEAE: Vomiting (bvFTD patients [1]; [6]): 9 (8.3%)
- Number (%) of patients with TEAE: White blood cells urine positive (bvFTD patients [1]; [6]): 6 (5.6%)
- deaths (bvFTD patients [1]; 200 mg/day): 3
- serotonin syndrome reported as an AE (bvFTD patients [1]; both doses, 20-item structured examination): No subject had serotonin syndrome reported as an AE
- FTV: Difference±SEM for Cmax,ss > […] (bvFTD patients [2]): 0.72±0.27 cm^3
- UPDRS – part III: Decline±SEM for LMTM 8 mg/day group (bvFTD patients [3]; [7]): 3.90±1.06
- reduction in decline, UPDRS (bvFTD patients [3]; 8 mg/day, plasma levels above vs below […] threshold): 75%
- UPDRS – part III: Difference±SEM from LMTM 8 mg/day for 200 mg/day (bvFTD patients [3]; [8]): –1.40±1.61
- FRS: Decline±SEM for LMTM 8 mg/day group (bvFTD patients [4]; [7]): –0.1240±0.0136
- FRS: Difference±SEM from LMTM 8 mg/day for 200 mg/day (bvFTD patients [4]; [8]): 0.0075±0.0206
